The record followed here is the NIST ThermoML archive (doi:10.1021/acs.jced.6b00972).

Numbers after ± are expanded uncertainties.

The conditions of series [1]: Crystal; DTA.
The nature of series [2]: Molar enthalpy of transition or fusion. The following applies: Crystal; DSC.

Regarding `CCOc1cc(C=O)ccc1O` [3-ethoxy-4-hydroxybenzaldehyde], the Normal melting temperature in series [1] turned out to be 78 ± 1.1 °C. Also, in series [2], the “Molar enthalpy of transition or fusion” value worked out at 5.64 ± 1.24 kcal/mol.
